Data as given in patent US10517889B2, “Modulators of SMAD7 expression” (Ionis Pharmaceuticals, Inc., priority 2017, dated 2019).
Strand notation (5' to 3'): a small letter for the sugar, then the base; units joined by * are phosphorothioate-linked, units joined directly phosphodiester-linked; [ ] holds rarer units or linkages, { } end groups; capitals alone tell only the bases. k = constrained ethyl (cEt); [5mC] = 5-methylcytosine; d = 2'-deoxy (DNA)

What was measured:
human SMAD7 mRNA [1] = assay: Antisense inhibition of human SMAD7 mRNA expression in Hep3B cells by 3-10-3 cEt gapmers, 10,000 nM, electroporation (Example 2); format: cell-based; conditions: approximately 24 hours
Summary of the method: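 SMAD7 mRNA was measured by real-time PCR (RTS5062) with RiboGreen total-RNA normalization, about 24 h after 10,000 nM gapmer was delivered by electroporation into Hep3B cells at 20,000 per well. Gapmers were 16-mer 3-10-3 cEt, fully phosphorothioate; values are % inhibition versus untreated controls.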

human SMAD7 mRNA [2] = assay: Dose-dependent inhibition of human SMAD7 mRNA expression in Hep3B cells (Example 3, Study 1 and 2); format: cell-based; conditions: electroporation; for % inhibition of SMAD7 mRNA expression: approximately 16 hours; for IC50: Study 2 (740-20000 nM)
Experimental: The antisense oligonucleotides were tested in a series of experiments that had similar culture conditions as described below.
(§1) Cells were plated at a density of 20,000 cells per well and transfected using electroporation with 0.31 μM, 1.25 μM, 5.00 μM, or 20.00 μM concentrations of antisense oligonucleotide, as specified in the Tables below. ION 483663 was included in the assays for comparison. After a treatment period of approximately 16 hours, RNA was isolated from the cells and SMAD7 mRNA levels were measured by quantitative real-time PCR. Primer probe set RTS5062 was used to measure human SMAD7 mRNA levels. SMAD7 mRNA levels were adjusted according to total RNA content, as measured by RIBOGREEN®. Results are presented as percent inhibition of SMAD7 mRNA expression, relative to untreated control cells.
The half maximal inhibitory concentration (IC50) of each oligonucleotide is also presented.
as §1, with “0.74” for “0.31”, “2.22” for “1.25”, “6.67” for “5.00”, “below.” for “below. ION 483663 was included in the assays for comparison.”

[3] = Hep3B cells, electroporation with 10,000 nM antisense oligonucleotide, SMAD7 mRNA by RT-PCR (RTS5062), relative to untreated control cells
[4] = 740 nM, Study 2, relative to untreated control cells
[5] = Hep3B cells, 10,000 nM antisense oligonucleotide, electroporation, RT-PCR primer probe set RTS5062, relative to untreated control cells

| Substance | % Inhibition (human SMAD7 mRNA [1]; [3]) | % inhibition of SMAD7 mRNA expression (human SMAD7 mRNA [2]; [4]) | % inhibition of SMAD7 mRNA expression (human SMAD7 mRNA [2]; 2220 nM, Study 2) | % inhibition of SMAD7 mRNA expression (human SMAD7 mRNA [2]; 6670.0 nM, Study 2) | % inhibition of SMAD7 mRNA expression (human SMAD7 mRNA [2]; 20000.0 nM, Study 2) | IC50 (human SMAD7 mRNA [2]) | % Inhibition (human SMAD7 mRNA [1]; SMAD7 mRNA, Hep3B cells, electroporation with 10,000 nM antisense oligonucleotide, primer probe set RTS5062, relative to untreated control cells) | % Inhibition (human SMAD7 mRNA [1]; [5]) | % inhibition of SMAD7 mRNA expression (human SMAD7 mRNA [1]; Hep3B cells, electroporation, 10,000 nM antisense oligonucleotide, RTS5062, relative to untreated control cells) | % Inhibition (human SMAD7 mRNA [1]; SMAD7 mRNA, Hep3B cells, 10,000 nM antisense oligonucleotide, electroporation, primer probe set RTS5062, relative to untreated control cells) |
| --- | --- | --- | --- | --- | --- | --- | --- | --- | --- | --- |
| 830135 (antisense kA*kA*kG*dT*dA*d[5mC]*dA*dA*dT*d[5mC]*dT*d[5mC]*d[5mC]*kT*kG*kG) [compound 830135] | 64% | 16% | 44% | 56% | 71% | 5000 nM |  |  |  |  |
| 830010 (antisense kG*kT*k[5mC]*dT*d[5mC]*dA*dA*dA*dT*dG*dG*dG*d[5mC]*kT*kT*k[5mC]) [compound 830010] |  | 0% | 12% | 52% | 72% | 1000 nM | 68% |  |  |  |
| 830044 (k[5mC]*kG*kA*dT*dT*dG*dG*d[5mC]*dA*dG*dG*dT*dT*kA*kA*kT; antisense) [compound 830044] | 60% | 47% | 61% | 80% | 93% | 10000 nM |  |  |  |  |
| 799410 (antisense kT*k[5mC]*kT*dG*dT*dT*dT*dA*d[5mC]*dA*d[5mC]*dA*d[5mC]*kA*kT*kT) [compound 799410] | 79% | 26% | 42% | 64% | 74% | 2000 nM |  |  |  |  |
| 799858 (kG*kT*kA*dA*dT*dT*dT*dA*dG*d[5mC]*dA*dA*dT*kT*k[5mC]*k[5mC]; antisense) [compound 799858] |  | 18% | 43% | 48% | 71% | 2000 nM |  | 64% |  |  |
| 798823 (kA*k[5mC]*kA*dG*dT*dA*dG*dA*dG*d[5mC]*d[5mC]*dT*d[5mC]*k[5mC]*k[5mC]*k[5mC]; antisense) [compound 798823] |  | 27% | 27% | 63% | 70% | > 20000 nM |  | 74% |  |  |
| 799851 (kA*kA*kG*dT*dG*dT*d[5mC]*d[5mC]*dA*dT*d[5mC]*dA*dA*kG*k[5mC]*kA; antisense) [compound 799851] |  | 15% | 36% | 46% | 57% | 2000 nM |  | 70% |  |  |
| 830053 (kG*kG*kG*dT*dG*dA*dG*dT*dA*dA*d[5mC]*d[5mC]*dA*kG*k[5mC]*kT; antisense) [compound 830053] | 68% | 29% | 56% | 79% | 87% | 2000 nM |  |  |  |  |
| 799674 (antisense kG*kA*kT*d[5mC]*dA*d[5mC]*dA*dA*dT*dT*d[5mC]*d[5mC]*dA*kA*kG*k[5mC]) [compound 799674] |  | 16% | 35% | 64% | 91% | 14000 nM |  |  | 48% |  |
| 772578 (kG*kG*kT*dA*dT*d[5mC]*dT*dG*dG*dA*dG*dT*dA*kA*kG*kG; antisense) [compound 772578] |  | 54% | 44% | 70% | 86% | 1000 nM |  |  |  | 63% |
| 830157 (antisense kG*kA*kA*d[5mC]*dT*dG*dT*dG*d[5mC]*d[5mC]*dT*d[5mC]*dA*kG*k[5mC]*kA) [compound 830157] | 70% | 24% | 50% | 73% | 81% | 3000 nM |  |  |  |  |
